Source: patent US20190167676A1, “METHODS FOR IMPROVING RESISTANCE TO SKELETAL MUSCLE FATIGUE” (Cytokinetics, Inc., priority 2012, published 2019)

Experiments:
fast skeletal troponin = fast skeletal troponin (Homo sapiens, UniProt P02585); conditions: isothermal titration calorimetry; cited from earlier work
healthy rats [1] = test: Rotarod running assay; format: in vivo, rat; conditions: for Run time (s) mean ± SEM: 30 minutes prior
Method: Female Sprague Dawley rats (210-260 g) were obtained from Charles River Laboratories and acclimated in the test facility for a minimum of six days prior to the start of the study. All rats were trained the day prior to compound administration. Training consisted of placing the rats on the rotating drum (rod), starting at a low constant speed (10 RPM). The rats were acclimated to walk on the drum for 5 minutes before resting. A second training session of an increasing speed from 14-16 RPM was initiated after all rats in the experimental group had finished the first training session. […] On the day of the experiment animals were dosed thirty minutes prior to start of test. The test began with a 5 minute primer session, whereby animals were run at an increasing speed from 14-16 RPM over 5 minutes. Rats were then run at a constantly accelerating rate from 12 RPM to 25 RPM over the course of 10 minutes. […] Time to fall was recorded, with the test being terminated at 900 seconds. Compound A was administered via oral gavage 30 minutes prior to assessment. Each dose was formulated as a suspension containing 0.2% Tween 80, 0.5% HPMC and water. Dose volume was 5 mL/kg. Vehicle (0.2% Tween 80, 0.5% HPMC and water) was administered similarly. Control treatments were chosen based on association with amelioration of central fatigue (caffeine, Davis 2003), muscular fatigue (creatine, Boyadjiev, 2007) and dual central/muscular fatigue (phosphoserine, […] 1976).

rat FDB muscle = test: Isometric tension force/frequency in rat FDB muscle in vitro; conditions: 10 μM, FIG. 1
Method: Adult male Sprague-Dawley rats (Charles River) between 250 and 300 g were anesthetized with a mixture of isoflurane gas and oxygen and quickly euthanized by cardiac excision. Hind feet were quickly removed at the ankle and placed in oxygenated Krebs solution at 4° C. (composition: 1 mM NaH2PO4, 5 mM KCl, 2 mM CaCl2, 1 mM MgSO4, 137 mM NaCl, 11 mM glucose and 1 mM NaHCO3). Feet were then pinned out in fresh oxygenated Krebs buffer at room temperature and the skin from the sole of the foot removed with scissors. In rats, a small branch of the main flexor digitorum brevis (FDB) muscle extends from the heel of the foot to the little digit. This was dissected free with small scissors and the tendons at each end of the muscle were cut. The muscle was pinned out in Krebs solution and the surrounding fascia removed. Silk thread was tied with a small loop and then knotted on to the end of each tendon, creating a silk loop at each end of the muscle. This was then hooked on to the fixed lever arm and force transducer of an 801A in vitro analysis system (Aurora Scientific, Ontario, Canada) and perfused with Krebs solution at 30° C.
The effect of 10 μM of Compound A on the force/frequency relationship was measured.

rat EDL muscle = test: Isometric tension and relaxation time in rat EDL muscle in situ; format: in vivo
Method: As with the in vitro FDB muscle studies, another predominately fast muscle fiber type, the extensor digitorum long us (EDL), was stimulated toward contractions in unconscious rats in situ. In these isometric muscle studies (measuring force at fixed length), force, time to peak contraction, time to half relaxation after cessation of stimulation (RT1/2) and baseline tension were determined. These studies have the advantage that the nerve and muscle pair were intact and had typical blood flow to the muscle under investigation.
Rats were placed under anesthesia using isoflurane and the skin around the experimental leg was removed. The distal end of the EDL muscle and its associated tendon were then isolated. The rat was then placed on the platform of an Aurora in-situ muscle analysis rig (806C), maintained at body temperature via a circulating water system. The knee was immobilized in a clamp between two sharpened screws and the distal tendon cut and tied to the arm of a force transducer (Aurora Scientific, Ontario, Canada) using a silk suture. The muscle was stimulated directly via the peroneal nerve. […] Muscle contractile properties were assessed by applying an electrical current to the nerve and recording the force generated by the muscle via a servomotor. […]

healthy rats [2] = test: Treadmill running assay; format: in vivo, rat
Method: Male Sprague Dawley rats (Charles River), 10-12 weeks old, 250-400 g. Rats were acclimated for a minimum of 2 days and weight was measured weekly. The endurance capacity of rats was assessed using a progressive exercise test as previously described (A. Aaker et al. J Cardiovasc Pharmacol28: 353-362, 1996; B. Helwig et al. J Appl Physiol. 2003 June; 94(6):2225-36). After familiarization with the treadmill apparatus, rats were run at a treadmill speed of 30 meters per minute (m/min) with a 5% incline. Every 15 minutes, the treadmill speed was increased by 5 meters per minute and the rats continued to exercise until they reached the point of fatigue and were unable to continue exercising (FIG. 1A). Exercise time was measured in minutes while exercise distance was recorded in meters. Compound A was administered via oral gavage 2 hours prior to assessment. Each dose was formulated as a suspension containing 1% hydroxypropyl methylcellulose (HPMC), 0.2% Tween 80, and micronized Compound A, and dose volume was 5 ml/kg. Vehicle (0.2% Tween 80, 1% HPMC and water) was administered similarly.

[3] = 10 mg/kg oral gavage 2 hours prior
[4] = 20 mg/kg oral gavage 2 hours prior

Sequence of fast skeletal troponin (P02585 whole entry): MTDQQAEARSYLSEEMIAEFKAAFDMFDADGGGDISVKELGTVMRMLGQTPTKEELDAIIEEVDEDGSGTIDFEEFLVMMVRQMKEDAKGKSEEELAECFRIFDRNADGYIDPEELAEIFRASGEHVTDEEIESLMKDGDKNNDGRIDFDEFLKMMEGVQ
Sequence of fast skeletal troponin (P48788 whole entry partner): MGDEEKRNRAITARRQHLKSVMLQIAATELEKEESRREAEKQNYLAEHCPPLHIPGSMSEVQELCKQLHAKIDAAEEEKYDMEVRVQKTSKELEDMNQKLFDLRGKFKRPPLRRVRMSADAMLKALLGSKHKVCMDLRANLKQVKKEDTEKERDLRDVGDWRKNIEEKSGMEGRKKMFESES
Sequence of fast skeletal troponin (P45378 whole entry partner): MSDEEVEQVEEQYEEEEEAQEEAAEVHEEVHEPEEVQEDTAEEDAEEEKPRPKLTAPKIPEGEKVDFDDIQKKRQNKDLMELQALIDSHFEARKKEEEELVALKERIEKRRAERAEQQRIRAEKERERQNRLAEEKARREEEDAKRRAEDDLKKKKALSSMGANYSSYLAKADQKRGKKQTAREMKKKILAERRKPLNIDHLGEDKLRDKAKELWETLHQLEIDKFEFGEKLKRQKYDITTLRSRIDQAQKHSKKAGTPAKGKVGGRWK

Compound: C#Cc1cnc2nc(O)n(C(CC)CC)c2n1 [Compound A, 6-ethynyl-1-(pentan-3-yl)-1H-imidazo[4,5-b]pyrazin-2-ol]
- Kd (fast skeletal troponin): 40 nM
- Run time (s) mean ± SEM (healthy rats [1]; 0.3 mg/kg oral gavage): 301 ± 36 s
- Run time (s) mean ± SEM (healthy rats [1]; 1 mg/kg oral gavage): 334 ± 29 s
- Run time (s) mean ± SEM (healthy rats [1]; 3 mg/kg oral gavage): 389 ± 65 s
- change of running time (healthy rats [1]; 3 mg/kg, maximum dose tested): more than a doubling of running time
- sub-maximal force development (force/frequency relationship) (rat FDB muscle): increased sub-maximal force development
- increase in relaxation time (rat EDL muscle; 10 mg/kg): approximately 3.5 fold
- sub-maximal and maximal force in situ (rat EDL muscle; femoral artery catheter, dose escalation up to 10 mg/Kg): increase in sub-maximal force without increasing maximal force
- Distance (m) Mean ± SEM (healthy rats [2]; [3]): 1972 ± 176 m
- Time (Min) Mean ± SEM (healthy rats [2]; [3]): 60.7 ± 4.2 min
- Distance (m) Mean ± SEM (healthy rats [2]; [4]): 1943 ± 205 m
- Time (Min) Mean ± SEM (healthy rats [2]; [4]): 59.4 ± 4.7 min
- increase in treadmill running time over baseline (healthy rats [2]; 10 and 20 mg/kg): 20%
- increase in treadmill running time over vehicle control (healthy rats [2]; 10 and 20 mg/kg): 50%
